Results taken from patent publication US20130079345A1, “[…] ACTIVE DISUBSTITUTED TRIAZINE DERIVATIVES” (BAYER INTELLECTUAL PROPERTY GMBH, priority 2010, published 2013).
pIC50: −log10 of the molar value. Where a name gives a salt, the structure may show the parent alone.

These molecules were tested on NF-kappaB reporter gene activation in HEK293 cells (assay: NF-kappaB reporter assay). Conditions: Homo sapiens, 20 ng/ml TNF alpha, 5 h.
Assay type: cell-based
Procedure: Cells were maintained in RPMI cell culture medium+glutamine (PAN Biotech GmbH, Aidenbach, Germany) supplemented with 10% fetal calf serum (PAA Laboratories GmbH, Pasching, Austria) and grown at 37° C., 5% CO2. HEK293 cells grown to 50% confluence were transfected with the Amaxa® Cell Line Nucleofector® Kit V (Lonza, Basel, Switzerland, catalog #VCA-1003). Transfections were performed according to manufacturer's optimized protocol for transfection of HEK293 cells. In brief, 2×10^5 cells were transfected with 5 μg highly purified plasmid DNA. Cells were transfected with a NF-kappa B reporter plasmid (pNFkBluc), pTALluc for control, or pMAXGFP for transfection control. After transfection, cells were taken up in 500 μL RPMI1640 cell culture medium, incubated for 1 h at 37° C., and 4.5 ml DMEM without phenol red were added per transfection. Transfected cells were seeded in 96 well plates (Greiner Bio-One, Frickenhausen, Germany, catalog #655098) with 100 μL cell suspension per well and incubated for 48 h. To each well, 100 μL DMEM with 2× concentrated compound diluted from 10 mM DMSO stocks, or 100 μL DMEM with 0.4% DMSO for control wells, was added. The compounds of general formula (I) summarized in Table 6 were used in this assay. Cells were stimulated with 20 ng/ml TNF alpha, and plates were incubated for 5 h at 37° C./5% CO2. Cell culture supernatants were removed to leave 100 μl medium per well, followed by addition of 100 μl Bright Glo luciferase assay reagent (Promega, Madison, Wis., USA, catalog #E2620), and shaking for 5 minutes in the dark. Luminescence was measured with a Victor Photospectrometer (Perkin Elmer, Waltham, Mass., USA). […], values were calculated with the software Excel Fit (IDBS, Guildford, UK) from 2-fold dilution series comprising at least 10 concentrations in duplicates.

Row | SMILES | pIC50
1 | COc1ccccc1-c1ncnc(Nc2cccc(CS(N)(=O)=O)c2)n1 [B1′, 3-[(4-(2-Methoxyphenyl)-1,3,5-triazin-2-yl)amino]benzenemethanesulfonamide trifluoroacetic acid salt] | 5.45
2 | COc1cc(F)ccc1-c1ncnc(Nc2cccc(CS(N)(=O)=O)c2)n1 [B2″, 1-(3-{[4-(4-fluoro-2-methoxyphenyl)-1,3,5-triazin-2-yl]amino}phenyl)methanesulfonamide trifluoroacetic acid salt] | 5.80
3 | NS(=O)(=O)Cc1cccc(Nc2ncnc(-c3ccccc3OCc3ccccc3)n2)c1 [B13′, 3-[(4-(2-Benzyloxyphenyl)-1,3,5-triazin-2-yl)amino]benzenemethanesulfonamide trifluoroacetic acid salt] | 6.44
4 | COc1ccccc1-c1ncnc(Nc2cccc(S(N)(=O)=O)c2)n1 [C1′, 3-[(4-(2-Methoxyphenyl)-1,3,5-triazin-2-yl)amino]benzenesulfonamide trifluoroacetic acid salt] | 5.83
5 | COc1ccc(F)cc1-c1ncnc(Nc2cccc(CS(N)(=O)=O)c2)n1 [Compound B3, 3-[(4-(5-Fluoro-2-methoxyphenyl)-1,3,5-triazin-2-yl)amino]benzenemethanesulfonamide] | 5.61
6 | COc1cccc(F)c1-c1ncnc(Nc2cccc(CS(N)(=O)=O)c2)n1 [Compound B4, 3-[(4-(6-Fluoro-2-methoxyphenyl)-1,3,5-triazin-2-yl)amino]benzenemethanesulfonamide] | 5.01
7 | COc1cc(Cl)ccc1-c1ncnc(Nc2cccc(CS(N)(=O)=O)c2)n1 [Compound B6, 3-[(4-(4-Chloro-2-methoxyphenyl)-1,3,5-triazin-2-yl)amino]benzenemethanesulfonamide] | 5.60
8 | CCOc1ccccc1-c1ncnc(Nc2cccc(CS(N)(=O)=O)c2)n1 [Compound B12, 3-[(4-(2-Ethoxyphenyl)-1,3,5-triazin-2-yl)amino]benzenemethanesulfonamide] | 5.44
9 | NS(=O)(=O)Cc1cccc(Nc2ncnc(-c3ccccc3Oc3ccccc3)n2)c1 [Compound B14, 1-(3-{[4-(2-phenoxyphenyl)-1,3,5-triazin-2-yl]amino}phenyl)methanesulfonamide] | 5.40
10 | NS(=O)(=O)Cc1cccc(Nc2ncnc(-c3ccccc3OCc3ccncc3)n2)c1 [Compound B16, 3-[(4-(2-((4-Pyridinyl)methoxy)phenyl)-1,3,5-triazin-2-yl)amino]benzenemethanesulfonamide] | 6.02
11 | COc1cnccc1-c1ncnc(Nc2cccc(CS(N)(=O)=O)c2)n1 [Compound B19, 3-[(4-(3-Methoxypyridin-4-yl)-1,3,5-triazin-2-yl)amino]benzenemethanesulfonamide] | 4.70
12 | COc1ccccc1-c1ncnc(Nc2cccc(CCS(N)(=O)=O)c2)n1 [Compound D1, 2-[3-((4-(2-Methoxyphenyl)-1,3,5-triazin-2-yl)amino)phenyl]ethanesulfonamide] | 5.30
13 | COc1cc(F)ccc1-c1ncnc(Nc2cccc(CCS(N)(=O)=O)c2)n1 [Compound D2, 2-[3-((4-(4-Fluoro-2-methoxyphenyl)-1,3,5-triazin-2-yl)amino)phenyl]ethanesulfonamide] | 5.79
14 | COc1ccccc1-c1ncnc(Nc2cccc([N+](=O)[O-])c2)n1 [Compound H1, 4-(2-Methoxyphenyl)-N-(3-nitrophenyl)-1,3,5-triazine-2-amine] | 5.57
15 | COc1ccccc1-c1ncnc(Nc2cccc(NS(C)(=O)=O)c2)n1 [Compound K1, N-[3-((4-(2-Methoxyphenyl)-1,3,5-triazin-2-yl)amino)phenyl]-methanesulfonamide] | 5.26
16 | CCCS(=O)(=O)Nc1cccc(Nc2ncnc(-c3ccccc3OC)n2)c1 [Compound L1, N-[3-((4-(2-Methoxyphenyl)-1,3,5-triazin-2-yl)amino)phenyl]-propanesulfonamide] | 5.19
17 | COc1ccccc1-c1ncnc(Nc2ccccc2)n1 [Compound P1, 4-(2-Methoxyphenyl)-N-phenyl-1,3,5-triazine-2-amine] | 4.73

Each molecule was assayed against T1, CDK9/CycT1 (Homo sapiens, UniProt P50750) (assay: CDK9/CycT1 kinase assay (TR-FRET)). Conditions: ATP 10 μM, values given in μM.
T1 construct: Recombinant full-length His-tagged human CDK9 and CycT1; His; purchased Invitrogen PV4131; host or cells: insect cells
T1 sequence (P50750 whole entry): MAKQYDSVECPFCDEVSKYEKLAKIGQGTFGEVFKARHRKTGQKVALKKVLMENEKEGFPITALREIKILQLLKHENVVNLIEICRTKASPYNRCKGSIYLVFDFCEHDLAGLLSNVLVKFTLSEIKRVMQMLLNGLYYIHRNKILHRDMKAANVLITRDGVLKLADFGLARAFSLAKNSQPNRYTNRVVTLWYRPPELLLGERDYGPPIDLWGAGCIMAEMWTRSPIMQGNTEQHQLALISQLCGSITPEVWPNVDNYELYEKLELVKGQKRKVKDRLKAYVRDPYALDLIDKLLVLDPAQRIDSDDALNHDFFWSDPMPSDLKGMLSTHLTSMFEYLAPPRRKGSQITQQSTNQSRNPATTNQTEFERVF
T1 sequence (O60563 whole entry partner): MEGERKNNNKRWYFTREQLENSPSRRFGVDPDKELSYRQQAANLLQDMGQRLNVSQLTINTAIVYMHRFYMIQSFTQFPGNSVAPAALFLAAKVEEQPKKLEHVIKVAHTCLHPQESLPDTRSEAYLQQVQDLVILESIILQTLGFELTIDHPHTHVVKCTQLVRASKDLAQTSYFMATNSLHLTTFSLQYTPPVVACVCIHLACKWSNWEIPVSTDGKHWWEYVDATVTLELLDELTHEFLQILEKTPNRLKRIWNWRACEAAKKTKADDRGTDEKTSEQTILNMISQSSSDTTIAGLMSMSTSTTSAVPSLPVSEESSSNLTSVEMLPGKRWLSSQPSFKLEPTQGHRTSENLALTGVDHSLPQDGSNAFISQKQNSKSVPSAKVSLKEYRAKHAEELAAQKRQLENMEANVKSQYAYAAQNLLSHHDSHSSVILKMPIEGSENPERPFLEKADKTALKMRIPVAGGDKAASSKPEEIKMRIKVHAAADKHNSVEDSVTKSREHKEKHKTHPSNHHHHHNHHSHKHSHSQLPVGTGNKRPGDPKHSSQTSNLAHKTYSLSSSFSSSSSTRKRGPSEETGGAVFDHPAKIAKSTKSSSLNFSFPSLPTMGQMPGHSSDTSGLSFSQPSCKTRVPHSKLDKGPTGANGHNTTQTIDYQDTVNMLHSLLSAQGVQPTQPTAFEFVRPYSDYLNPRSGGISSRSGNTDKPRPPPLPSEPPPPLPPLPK
Assay type: biochemical
Text: CDK9/CycT1-inhibitory activity of compounds of the present invention was quantified employing the CDK9/CycT1 TR-FRET assay as described in the following paragraphs.
Recombinant full-length His-tagged human CDK9 and CycT1, expressed in insect cells and purified by Ni-NTA affinity chromatography, were purchased from Invitrogen (catalogue number PV4131). A biotinylated peptide biotin-Ttds-[…] (C-terminus in amide form), which can be purchased from e.g the company JERINI Peptide Technologies (Berlin, Germany), was used as a substrate for the kinase reaction.
For the assay, 50 nl of a 100-fold concentrated solution of the test compound in DMSO was pipetted into a well of a black low-volume 384-well microtiter plate (Greiner Bio-One, Frickenhausen, Germany), 2 μl of a solution of CDK9/CycT1 in aqueous assay buffer [50 mM Tris/HCl pH 8.0], 10 mM MgCl2, 1.0 mM dithiothreitol, 0.1 mM sodium ortho-vanadate, 0.01% (v/v) Nonidet-P40 (Sigma)] were added. The mixture was incubated at 22° C. for 15 min to allow pre-binding of the test compounds to the enzyme before the start of the kinase reaction. […] The resulting mixture was incubated at 22° C. for a reaction time of 25 minutes. The concentration of CDK9/CycT1 was adjusted depending of the activity of the enzyme lot and was chosen appropriately for measurements in the linear range of the assay. Typical concentrations were in the range of 1 μg/ml. The reaction was stopped by the addition of 5 μl of a solution of TR-FRET detection reagents (0.2 μM streptavidine-XL and 1 nM anti-RB(pSer807/pSer811)-antibody from BD Pharmingen [#558389] and 1.2 nM LANCE EU-W1024 labeled anti-mouse IgG antibody [Perkin-Elmer, product no. AD0077]) in an aqueous EDTA-solution (100 mM EDTA, 0.2% (w/v) bovine serum albumin in 100 mM HEPES/NaOH, pH 7.0).
The resulting mixture was incubated at 22° C. for one hour to allow the formation of a complex between the phosphorylated biotinylated peptide and the detection reagents. Subsequently, the amount of phosphorylated substrate was evaluated by measurement of the resonance energy transfer from the Eu-chelate to the streptavidine-XL. Therefore, the fluorescence emissions at 620 nm and 665 nm after excitation at 350 nm were measured in a HTRF reader, e.g. a Rubystar (BMG Labtechnologies, Offenburg, Germany) or a Viewlux (Perkin-Elmer). The ratio of the emissions at 665 nm and at […] was taken as a measure for the amounts of phosphorylated substrate. The data were normalised, i.e. enzyme reaction without inhibitor corresponds to 0% inhibition, and all other assay components in the absence of the enzyme correspond to 100% inhibition. IC50 values were calculated by a 4-parameter fit using in-house software.

Row | IC50 | SMILES
18 | 3.3 µM | N#Cc1cc(F)ccc1-c1ncnc(Nc2cccc(CS(N)(=O)=O)c2)n1 [Compound U3, 1-(3-{[4-(2-cyano-4-fluorophenyl)-1,3,5-triazin-2-yl]amino}phenyl)methanesulfonamide]

Same assay, conditions: ATP 10 μM, values in nM

Row | IC50 | SMILES
19 | 0.014 µM | COc1cc(F)ccc1-c1ncnc(Nc2cccc(CS(N)(=O)=O)c2)n1 [B2′, 1-(3-{[4-(4-fluoro-2-methoxyphenyl)-1,3,5-triazin-2-yl]amino}phenyl)methanesulfonamide hydrochloride]
20 | 0.021 µM | COc1ccccc1-c1ncnc(Nc2cccc(CS(N)(=O)=O)c2)n1 [Compound B1, 3-[(4-(2-Methoxyphenyl)-1,3,5-triazin-2-yl)amino]benzenemethanesulfonamide]
21 | 0.0081 µM | COc1cc(F)ccc1-c1ncnc(Nc2cccc(CS(N)(=O)=O)c2)n1 [Compound B2, 3-[(4-(4-Fluoro-2-methoxyphenyl)-1,3,5-triazin-2-yl)amino]benzenemethanesulfonamide]
22 | 0.0032 µM | NS(=O)(=O)Cc1cccc(Nc2ncnc(-c3ccccc3OCc3ccccc3)n2)c1 [Compound B13, 3-[(4-(2-Benzyloxyphenyl)-1,3,5-triazin-2-yl)amino]benzenemethanesulfonamide]
23 | 0.062 µM | NS(=O)(=O)Cc1cccc(Nc2ncnc(-c3ccccc3Oc3ccccc3)n2)c1 [Compound B14, 1-(3-{[4-(2-phenoxyphenyl)-1,3,5-triazin-2-yl]amino}phenyl)methanesulfonamide]
24 | 0.028 µM | CC(C)Oc1cc(F)ccc1-c1ncnc(Nc2cccc(CS(N)(=O)=O)c2)n1 [Compound U2, 1-[3-({4-[4-fluoro-2-(propan-2-yloxy)phenyl]-1,3,5-triazin-2-yl}amino)phenyl]methanesulfonamide]
25 | 0.014 µM | COc1cc(F)c(F)cc1-c1ncnc(Nc2cccc(CS(N)(=O)=O)c2)n1 [Compound U7, 1-(3-{[4-(4,5-difluoro-2-methoxyphenyl)-1,3,5-triazin-2-yl]amino}phenyl)methanesulfonamide]
26 | 0.32 µM | COc1cc(F)ccc1-c1ncnc(Nc2ccc(S(C)(=O)=O)nc2)n1 [Compound U8, 4-(4-fluoro-2-methoxyphenyl)-N-[6-(methylsulfonyl)pyridin-3-yl]-1,3,5-triazin-2-amine]
27 | 0.04 µM | CNS(=O)(=O)Cc1cccc(Nc2cc(-c3ccccc3OC)ncn2)c1 [Ref2, C-{3-[6-(2-Methoxy-phenyl)-pyrimidin-4-ylamino]-phenyl}-N-methyl methanesulfonamide, reference compound]
28 | 0.049 µM | COc1ccccc1-c1cc(Nc2cccc(CS(=O)(=O)N(C)C)c2)ncn1 [Ref4, C-{3-[6-(2-Methoxy-phenyl)-pyrimidin-4-ylamino]-phenyl}-N,N-dimethylmethanesulfonamide, reference compound]
